The results in this text go back to patent publication EP4015040A1, “METHOD FOR TREATING BLOOD DISEASES” (Fundación para la Formación e Investigación Sanitarias de …, priority 2020, dated 2022).

The experiment deals with T1, telomerase (Danio rerio, UniProt A2THE9).
T1 sequence (A2THE9 1-1098): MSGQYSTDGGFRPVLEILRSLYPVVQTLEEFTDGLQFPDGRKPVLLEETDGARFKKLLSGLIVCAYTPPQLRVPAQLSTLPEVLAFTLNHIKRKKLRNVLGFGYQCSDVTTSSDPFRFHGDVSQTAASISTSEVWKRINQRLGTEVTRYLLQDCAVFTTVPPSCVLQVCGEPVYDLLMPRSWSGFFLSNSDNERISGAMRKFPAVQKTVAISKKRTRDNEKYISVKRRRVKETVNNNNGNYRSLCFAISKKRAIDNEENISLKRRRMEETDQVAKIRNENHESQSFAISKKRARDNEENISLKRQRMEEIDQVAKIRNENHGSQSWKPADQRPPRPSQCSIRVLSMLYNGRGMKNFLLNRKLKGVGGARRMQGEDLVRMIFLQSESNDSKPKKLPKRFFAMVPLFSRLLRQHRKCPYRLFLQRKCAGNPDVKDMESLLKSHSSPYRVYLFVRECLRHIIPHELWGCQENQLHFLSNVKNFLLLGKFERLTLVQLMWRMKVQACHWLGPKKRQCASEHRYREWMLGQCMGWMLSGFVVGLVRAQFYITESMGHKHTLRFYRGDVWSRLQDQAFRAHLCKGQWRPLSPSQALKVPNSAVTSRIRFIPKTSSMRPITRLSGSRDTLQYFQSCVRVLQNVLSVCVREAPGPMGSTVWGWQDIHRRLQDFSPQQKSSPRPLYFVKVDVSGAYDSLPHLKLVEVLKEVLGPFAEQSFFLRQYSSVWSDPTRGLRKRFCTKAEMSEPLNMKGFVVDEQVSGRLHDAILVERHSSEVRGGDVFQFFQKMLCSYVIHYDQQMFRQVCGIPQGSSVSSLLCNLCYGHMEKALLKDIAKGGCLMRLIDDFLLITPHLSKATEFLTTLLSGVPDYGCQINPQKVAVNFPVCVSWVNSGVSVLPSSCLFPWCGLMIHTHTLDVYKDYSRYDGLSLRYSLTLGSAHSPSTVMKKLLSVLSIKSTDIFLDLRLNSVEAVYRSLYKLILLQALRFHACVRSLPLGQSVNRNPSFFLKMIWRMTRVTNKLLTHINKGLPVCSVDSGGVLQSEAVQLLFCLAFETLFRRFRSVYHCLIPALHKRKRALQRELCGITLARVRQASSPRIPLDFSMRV
Description: Telomerase activity assay (Q-TRAP) in protein extracts of microinjected larvae. The experiment is classed as in vivo. The conditions noted are these: zebrafish; 20 µM microinjected, larvae collected at 48 hpf; read-out: reduction of telomerase activity.

In the case of `C/C(=C\C(=O)Nc1ccccc1C(=O)O)c1ccc2ccccc2c1` [BIBR1532], the inhibition at 20 µM was above 50%.
